In patent EP0113880A2, “Derivatives from 2-azabicyclo(2.2.1)heptane, process for their preparation, agents containing them and their use, and 2-azabicyclo(2.2.1)heptane derivatives as intermediates, and process for their preparation” (HOECHST AKTIENGESELLSCHAFT, priority 1982, dated 1984):
Structures can show the parent of a compound that is named as a salt. Where two headings read alike, the source gives them in different places.

System: durch 310 ng Angiotensin I ausgelösten Pressorreaktion
Test: Inhibition of the angiotensin I induced pressor response after intraduodenal administration to the anaesthetised rat
Type: in vivo, Ratte
Conditions: dose giving 50 % inhibition of the pressor response to 310 ng angiotensin I, 30 min after application
Procedure: Intraduodenale Gabe an der narkotisierten Ratte, 50 % Hemmung der durch 310 ng Angiotensin I ausgelösten Pressorreaktion 30 min. nach Applikation in der Dosis .............- ED50: […]

Compound	ED50 [mg/kg]	ED50 (30 min) [mg/kg]	further results
CCOC(=O)[C@H](CC(=O)c1ccccc1)N[C@@H](C)C(=O)N1C2CCC(C2)[C@H]1C(=O)O (stereo partly drawn) [N-(1-S-Carbethoxy-3-oxo-3-phenyl-propyl)-S-alanyl-2-azabicyclo [2.2.1] heptan-3-S-exo-carbonsäure]	0.9	–	–
CCOC(=O)[C@H](CC(=O)c1ccccc1)N[C@@H](C)C(=O)N1[C@H]2CC[C@H](C2)[C@H]1C(=O)O [N-(1-S-Carbethoxy-3-phenyl-3-oxo-propyl)-S-alanyl-2-azabicyclo [2.2.1] heptan-3-S-endo-carbonsäure. Hydrochlorid]	–	–	ED50 (0.5 h, read-out: ED50): 0.75 mg/kg
C[C@H](N[C@@H](CCc1ccccc1)C(=O)O)C(=O)N1C2CCC(C2)[C@H]1C(=O)O (stereo partly drawn) [n=1, X=C6H5, Y=H, Z=H, R^1=H, R^2=CH3, R=H, endo] [N-(1-S-Carboxy-3-phenyl-propyl)-S-alanyl-2-azabicyclo , [2.2.1] heptan-3-S-endo-carbonsäure]	–	1.6	–
C[C@H](N[C@@H](CCc1ccccc1)C(=O)O)C(=O)N1C2CCC(C2)[C@H]1C(=O)O (stereo partly drawn) [n=1, X=C6H5, Y=H, Z=H, R^1=H, R^2=CH3, R=H, exo] [N-(1-S-Carboxy-3-phenyl-propyl)-S-alanyl-2-azabicyclo [2.2.1 J heptan-3-S-exo-carbonsäure]	–	1.8	–
N-(1-S-Carbethoxy-3-phenyl-propyl)-S-alanyl-2-azabicyclo [2.2.1 ] heptan-3-S-exo-carbonsäure Hydrochlorid	0.7	–	–
N-(1-S-Carbethoxy-3-phenyl-propyl)-S-alanyl-2-azabicyclo [ 2.2.1] heptan-3-S-endo-carbonsäure-Hydrochlorid	0.5	–	–
